Test results reported in US12331042B2, “Compounds suitable for the treatment and prophylaxis of muscle wasting and other conditions” (priority 2019, dated 2025).
“Also recorded” adds a separate entry of the source.

Assays:
[1] = test system: C57BL/6N mice inoculated with B16F10 melanoma cells; experiment: Tumor mouse model (B16F10 melanoma); type: in vivo; conditions: 0.1 weight-% in chow, vs tumor mice
Source text: 8 weeks old female C57BL/6N mice were inoculated with B16F10 melanoma cells (9×10^5 cells) or saline (sham, n=10). Within the first 3 days after tumor inoculation, the B16F10 mice as well as the sham mice received regular chow. Then the B16F10 mice were randomly divided in three groups, where the first group received MyoMed-946 chow (Tumor+MyoMed-946, n=10), the second group received MyoMed-205 chow (Tumor+MyoMed-205, n=10) and the third group received an identical chow but without the addition of the selected compounds (Tumor, n=10). The compound concentration in the chow was 0.1 weight-%, resulting in a daily compound intake per mouse of about 3 mg. Also the sham group was fed with an identical chow but without the addition of the selected compound. Wire-hang tests (muscle function) were performed with each mouse 9, 16 and 23 days after tumor inoculation. For this purpose, a standard wire hang construction was used with a wire (length: of 40 cm, diameter: 2.5 mm) at a height of 70 cm above the floor. Under the center of the wire a large box with sawdust was placed. For testing, the mouse was hung to the wire with the two limbs and hang time was recorded. Each animal had three attempts for 180 sec. max each. After three attempts, the maximal holding impulse was calculated (hanging time×body weight).
Mice were sacrificed 25 days after tumor inoculation. […]

[2] = test system: diaphragm fiber bundle of CHF mice; experiment: Contractile function of diaphragm fiber bundles, CHF mice; type: in vivo
Experimental: To provide a direct functional assessment, the contractility in skeletal muscle fiber bundles, i.e. fibre bundle from the diaphragm of MCT mice and CIF mice, was measured as follows. A fiber bundle from the diaphragm was isolated to allow in vitro contractile function to be assessed using a length-controlled lever system (301B, Aurora Scientific Inc., Aurora, Canada), as described by Bowen et al., FASEB J, 2017, 31. Briefly, a muscle bundle was mounted vertically in a buffer-filled organ bath (˜22° C.), set at optimal length, and after 15 min was stimulated over a force-frequency protocol between 1-300 Hz (600 mA; 500 ms train duration; 0.25 ms pulse width). […] Shortening velocity was determined 10 ms after the first change in length and on the linear section of the transient (DMA software, Aurora Scientific). Force (N) was normalized to muscle cross-sectional area (CSA; cm^2) by dividing muscle mass (g) by the product of Lo (cm) and estimated muscle density (1.06), which allowed specific force in N/cm^2 to be calculated. Shortening velocity was normalized to optimal muscle length (in Lo/s), while power was calculated for each load as the product of shortening velocity and specific force (in W/cm^2).

[3] = test system: C2C12 myotubes (myocytes); experiment: Cytotoxicity, LDH release in cultured myotubes (myocytes); type: cell-based, Murine; conditions: increasing concentrations, 24 h
Experimental: Murine C2C12 myoblasts (CRL-1772, ATCC) were cultured in DMEM (Lonza; Basel, Switzerland) supplemented with 10% fetal calf serum (FCS; Gibco®Invitrogen, Carlsbad, CA). For induction of differentiation into myotubes, subconfluent cultures were switched to DMEM containing 2% horse serum (Sigma-Aldrich; Seelze, Germany). Myotubes were subsequently pre-treated for 2 h with increasing compound concentrations (0.1 to 10 μmol/L, dissolved in DMSO) or with an equal volume of DMSO before treatment for 24 h with 10 μmol/L dexamethasone (DEX; Sigma-Aldrich; Seelze, Germany). Myotube diameter was then evaluated by image analysis software (Analysis 3.0, Olympus Soft Imaging Solutions GmbH, Munster, Germany). To determine cytotoxicity of selected compounds, myoblasts or myotubes were incubated with increasing concentrations for 24 h. Subsequently, the concentration of lactate dehydrogenase (LDH) activity was quantified in the cell culture supernatant as a measure for cell destruction as described in Bellocci et al., Anal Biochem, 2008, 374, 48-55.

[4] = test system: MAFbx, MuRF1, CARP, BAX, eIF2B-delta expression; experiment: Western blot analysis of TA muscle, MCT mice; type: in vivo
Source text: The Western blot analyses consisted of frozen TA muscle samples being homogenized in RIPA buffer (50 mmol/L Tris, 150 mmol/L sodium chloride, 1 mmol/L EDTA, 1% NP-40, 0.25% sodium-deoxycholate, 0.1% SDS, 1% Triton X-100; pH 7.4) or relax buffer (90 mmol/L HEPES, 126 mmol/L potassium chloride, 1 mmol/L MgCl, 50 mmol/L EGTA, 8 mmol/L ATP, 10 mmol/1 Creatinephosphate; pH 7.4) containing a protease inhibitor mix (Inhibitor mix M, Serva, Heidelberg, Germany), sonicated, and centrifuged at 16,000×g for 5 min. Protein concentration of the supernatant was determined (BCA assay, Pierce, Bonn, Germany) and aliquots (5-20 μg) were separated by SDS-polyacrylamide gel electrophoresis. Proteins were transferred to a polyvinylidene fluoride membrane (PVDF) and incubated overnight at 4° C. with the following primary antibodies: MAFbx ( 1/2000, Eurogentec, Seraing, Belgium), MuRF1 ( 1/1000, Myomedix Ltd., Neckargemünd, Germany), CARP ( 1/500, Myomedix Ltd., Neckargemünd, Germany), BAX ( 1/1000; Abcam, Cambridge, UK), and eIF2B-delta ( 1/200; Santa Cruz Biotechnolgy, Santa Cruz, USA). Membranes were subsequently incubated with a horseradish peroxidase-conjugated secondary antibody and specific bands visualized by enzymatic chemiluminescence (Super Signal West Pico, Thermo Fisher Scientific Inc., Bonn, Germany) and densitometry quantified using a 1D scan software package (Scanalytics Inc., Rockville, USA). Blots were then normalized to the loading control GAPDH ( 1/30000; HyTest Ltd, Turku, Finland). All data are presented as fold change relative to sham.

`Cc1cc(=O)oc2cc(OCc3ccc(C(=O)OCC(=O)NC(=O)NCc4ccco4)cc3)ccc12` [MyoMed-946, [2-(2-furylmethylcarbamoylamino)-2-oxo-ethyl] 4-[(4-methyl-2-oxo-chromen-7-yl)oxymethyl]benzoate] was tested, and the “tumor induced skeletal muscle atrophy (TA muscle weight)” value ([1]; 25 days after inoculation, at least to certain extent) was “attenuated”, the “loss of muscle function in wire-hang test” value ([1]; 9, 16 and 23 days after inoculation) was “attenuated; also recorded: significantly attenuates the loss of muscle function” and the “post-infarct diaphragm weakness (diaphragm myopathy)” value ([2]; CHF mice fed compound vs control chow, week 10) was “protected mice from such a post-infarct diaphragm weakness”. The “loss of diaphragm function and diaphragm maximal force due to chronic heart failure” value ([2]; CHF mice fed compound vs untreated CHF mice) was “significantly reduced”, the “toxicity (LDH release)” value [3] was “low toxicity” and the “increase in CARP expression” value ([4]; MCT+compound vs MCT) was “attenuated; also recorded: abolished”. The “increased protein expression of MuRF1” value ([4]; MCT+compound vs MCT) was “attenuated; also recorded: prevented”, the “protein expression of MAFBx” value ([4]; MCT+compound vs MCT) was “No changes are detected; also recorded: no effects were observed” and the “expression of eIF2B (delta subunit)” value ([4]; MCT+compound vs MCT, confirmed by immunoblotting) was “upregulation”. For the same compound, the “expression of BAX” value ([4]; MCT+compound, upregulated in MCT vs sham) was “normalized”.
